Key:
Oryctolagus cuniculus [1] = assay: Toxicity in high fat-high cholesterol fed New Zealand Oryctolagus cuniculus (rabbit) assessed as mortality at 15 mg/kg, po for 40 days; assay type: organism-based; parameters: dose 15 mg/kg, route oral; conditions: in vivo, 960 h
Oryctolagus cuniculus [2] = assay: Antihyperlipidemic activity in high fat-high cholesterol fed New Zealand Oryctolagus cuniculus (rabbit) assessed as low-density lipoprotein-cholesterol level in blood at 10 mg/kg, po for 40 days (reference value: 3.47 +/- 0.44 mmol/l); assay type: functional
Oryctolagus cuniculus [3] = assay: Antihyperlipidemic activity in high fat-high cholesterol fed New Zealand Oryctolagus cuniculus (rabbit) assessed as low-density lipoprotein-cholesterol level in blood at 15 mg/kg, po for 40 days (reference value: 3.45 +/- 0.56 mmol/l); assay type: functional
Oryctolagus cuniculus [4] = assay: Antihyperlipidemic activity in high fat-high cholesterol fed New Zealand Oryctolagus cuniculus (rabbit) assessed as triglyceride level in blood at 15 mg/kg, po for 40 days (reference value: 2.07 +/- 0.33 mmol/l); assay type: functional
Oryctolagus cuniculus [5] = assay: Antihyperlipidemic activity in high fat-high cholesterol fed New Zealand Oryctolagus cuniculus (rabbit) assessed as high-density lipoprotein-cholesterol level in blood at 15 mg/kg, po for 40 days (reference value: 0.69 +/- 0.02 mmol/l); assay type: functional
Oryctolagus cuniculus [6] = assay: Toxicity in hyperlipidemic New Zealand Oryctolagus cuniculus (rabbit) assessed as total bilirubin level at 5 mg/kg/day, po for 2 months (reference value: 28.45 +/- 11.55 Umol/l); assay type: organism-based; parameters: route oral; conditions: in vivo
Oryctolagus cuniculus [7] = assay: Toxicity in hyperlipidemic New Zealand Oryctolagus cuniculus (rabbit) assessed as effect on heart coefficient at 5 to 15 mg/kg/day, po for 2 months; assay type: organism-based; parameters: route oral; conditions: in vivo
Oryctolagus cuniculus [8] = assay: Antihyperlipidemic activity in high fat-high cholesterol fed New Zealand Oryctolagus cuniculus (rabbit) assessed as total cholesterol level in blood at 15 mg/kg, po for 40 days (reference value: 8.74 +/- 0.53 mmol/l); assay type: functional
Oryctolagus cuniculus [9] = assay: Antihyperlipidemic activity in high fat-high cholesterol fed New Zealand Oryctolagus cuniculus (rabbit) assessed as triglyceride level in blood at 5 mg/kg, po for 40 days (reference value: 2.07 +/- 0.33 mmol/l); assay type: functional
Oryctolagus cuniculus [10] = assay: Antihyperlipidemic activity in high fat-high cholesterol fed New Zealand Oryctolagus cuniculus (rabbit) assessed as total cholesterol level in blood at 10 mg/kg, po for 40 days (reference value: 8.74 +/- 0.53 mmol/l); assay type: functional
Oryctolagus cuniculus [11] = assay: Toxicity in hyperlipidemic New Zealand Oryctolagus cuniculus (rabbit) assessed as alanine aminotransferase level at 10 mg/kg/day, po for 2 months (reference value: 92.14 +/- 14.3 U/l); assay type: organism-based; parameters: route oral; conditions: in vivo
Oryctolagus cuniculus [12] = assay: Toxicity in hyperlipidemic New Zealand Oryctolagus cuniculus (rabbit) assessed as histopathological examination of heart at 5 to 15 mg/kg/day, po for 2 months by hematoxylin-eosin staining analysis; assay type: organism-based; parameters: route oral; conditions: in vivo
Oryctolagus cuniculus [13] = assay: Antihyperlipidemic activity in high fat-high cholesterol fed New Zealand Oryctolagus cuniculus (rabbit) assessed as total cholesterol level in blood at 15 mg/kg, po for 40 days (reference value: 8.89 +/- 0.53 mmol/l); assay type: functional
Oryctolagus cuniculus [14] = assay: Toxicity in hyperlipidemic New Zealand Oryctolagus cuniculus (rabbit) assessed as effect on kidney coefficient at 5 to 15 mg/kg/day, po for 2 months; assay type: organism-based; parameters: route oral; conditions: in vivo
[15] = Toxicity in Mus musculus Kunming (mouse); assay type: organism-based; conditions: in vivo
Oryctolagus cuniculus [16] = assay: Toxicity in hyperlipidemic New Zealand Oryctolagus cuniculus (rabbit) assessed as blood urea nitrogen level at 15 mg/kg/day, po for 2 months (reference value: 7.25 +/- 1.46 mmol/l); assay type: organism-based; parameters: route oral; conditions: in vivo
Oryctolagus cuniculus [17] = assay: Antihyperlipidemic activity in high fat-high cholesterol fed New Zealand Oryctolagus cuniculus (rabbit) assessed as high-density lipoprotein-cholesterol level in blood at 15 mg/kg, po for 40 days (reference value: 0.67 +/- 0.22 mmol/l); assay type: functional
Oryctolagus cuniculus [18] = assay: Toxicity in hyperlipidemic New Zealand Oryctolagus cuniculus (rabbit) assessed as blood urea nitrogen level at 10 mg/kg/day, po for 2 months (reference value: 7.25 +/- 1.46 mmol/l); assay type: organism-based; parameters: route oral; conditions: in vivo

Question: Which Activity (Oryctolagus cuniculus [1]) does the source give for `CCCCCCCCCCCCCCCCc1c2c(OC)c(OC)ccc2cc2[n+]1CCc1cc3c(cc1-2)OCO3.[Cl-]` [8-HEXADECYL-BERBERINE CHLORIDE] here?
Answer: Non-toxic

Question: What about the Activity (Oryctolagus cuniculus [2]) of the same molecule?
Answer: 2.46e+06 nmol/L

Question: And the Activity (Oryctolagus cuniculus [3])?
Answer: 2.02e+06 nmol/L

Question: What about the Activity (Oryctolagus cuniculus [4]) of the same molecule?
Answer: 1.25e+06 nmol/L

Question: And the Activity (Oryctolagus cuniculus [5])?
Answer: 750000 nmol/L

Question: And the Activity (Oryctolagus cuniculus [6])?
Answer: 15.6 µmol/L

Question: And the Activity (Oryctolagus cuniculus [7])?
Answer: Non-toxic

Question: And the Activity (Oryctolagus cuniculus [8])?
Answer: 2.28e+06 nmol/L

Question: And the Activity (Oryctolagus cuniculus [9])?
Answer: 1.95e+06 nmol/L

Question: What about the Activity (Oryctolagus cuniculus [10]) of the same molecule?
Answer: 4.26e+06 nmol/L

Question: And the Activity (Oryctolagus cuniculus [11])?
Answer: 71.53 U/L

Question: And the Activity (Oryctolagus cuniculus [12])?
Answer: Non-toxic

Question: What about the Activity (Oryctolagus cuniculus [13]) of the same molecule?
Answer: 2.22e+06 nmol/L

Question: What about the Activity (Oryctolagus cuniculus [14]) of the same molecule?
Answer: Non-toxic

Question: And the LD50 [15]?
Answer: > 1000 mg/kg

Question: What about the Activity (Oryctolagus cuniculus [16]) of the same molecule?
Answer: 4.36 mmol/L

Question: What about the Activity (Oryctolagus cuniculus [17]) of the same molecule?
Answer: 750000 nmol/L

Question: What about the Activity (Oryctolagus cuniculus [18]) of the same molecule?
Answer: 4.73 mmol/L
